Assay [1] relates to LNCap prostate tumor cells. In words: In vitro cell growth assay (MTS), LNCap. Format: cell-based, human. As to conditions: Homo sapiens, LNCaP, 72 h, three days after drug treatment. The protocol:
(§1) Cell lines used were human adenocarcinoma (LoVo), […], prostate (LNCap), breast (MDA468, MCF7), colon (HCT116), renal (HTB44 A498), and ovarian (OVCAR3) tumor cell lines. The tumor cells were plated in 96-well culture plates at approximately 3000 cells per well. One day following plating, various concentrations of inhibitors in DMSO were added to cells (final DMSO concentration in cell assays was 0.25%). Three days after drug treatment, viable cell densities were determined by cell mediated metabolic conversion of the dye MTS, a well-established indicator of cell proliferation in vitro. Cell growth assays were performed using kits purchased from Promega Corporation (Madison, Wis.), following the protocol provided by the vendor. Measuring absorbance at 490 nm generated MTS assay results. Compound effect on cell proliferation was assessed relative to untreated control cell growth.

For a further assay, the target named is PI3Kα (Homo sapiens, UniProt P42336). The assay can be described thus: PI3Kα fluorescence polarization assay. Format: biochemical. The conditions noted are these: 20 μM PIP2, 25 μM ATP. The protocol:
The reaction buffer was 20 mM HEPES pH7.5, 2 mM MgCl2, 0.05% CHAPS, and 0.01% βME (added fresh). The substrate solution was 40 μM PIP2 (diC8, Echelon, Salt Lake City Utah cat #P-4508, 1 mM in water) and 50 μM ATP in the reaction buffer. Nunc 384-well black polypropylene fluorescent plates were used for PI3K assays. The assay is run by putting 9.5 μl of freshly diluted enzyme in the reaction buffer per well, adding 0.5 μl of diluted drug or DMSO, and mixing. Then 10 μl of the substrate solution is added to each well to start the reaction. A final concentration of 20 μM PIP2 and 25 μM ATP in the reaction was used. Reactions were allowed to proceed for 30-60 minutes at room temperature. After 30-60 minutes, 20 μl of a solution of 10 nM TAMRA detector (Red detector probe-Echelon) and 2.5 uM of GST-murine GRP (1.5 mg/ml in 17% glycerol) was added per well to stop the reaction. The resulting solution was mixed well and allowed to stand for 90-110 minutes before reading plate. Assay Plates were read on Perkin-Elmer Envision plate readers with appropriate filters for Tamra [BODIPY-TMRI(1,3,4,5)P4]. Data obtained were used to calculate enzymatic activity and enzyme inhibition by inhibitor compounds. It is important to keep Red probe solutions dark. This procedure is adapted from Echelon Biosciences Inc procedure for their PI3-Kinase fluorescence polarization activity Assay kit Product number K-1100.
Background: Fluorescence polarisation rises when a labelled molecule tumbles more slowly, as on binding a larger partner.

The next assay addresses human TOR (FLAG-TOR) (Homo sapiens, UniProt P42345). In words: mTOR enzyme assay (DELFIA format, purified enzyme). Format: biochemical. The conditions noted are these: 800 ng/ml FLAG-TOR, 100 μM ATP, 1.25 μM His6-S6K; read-out: mTOR Kinase IC50.
The subject of assay [2] is MDA468 breast tumor cells. The assay can be described thus: In vitro cell growth assay (MTS), MDA468. Format: cell-based, human. The conditions noted are these: Homo sapiens, 72 h, three days after drug treatment. The protocol: as §1

A word on the pIC50: it is the IC50 on a negative log10 scale, so that one unit is a factor of ten.

pIC50: −log10 of the molar value.

Sequence of PI3Kα (P42336 whole entry, species assumed): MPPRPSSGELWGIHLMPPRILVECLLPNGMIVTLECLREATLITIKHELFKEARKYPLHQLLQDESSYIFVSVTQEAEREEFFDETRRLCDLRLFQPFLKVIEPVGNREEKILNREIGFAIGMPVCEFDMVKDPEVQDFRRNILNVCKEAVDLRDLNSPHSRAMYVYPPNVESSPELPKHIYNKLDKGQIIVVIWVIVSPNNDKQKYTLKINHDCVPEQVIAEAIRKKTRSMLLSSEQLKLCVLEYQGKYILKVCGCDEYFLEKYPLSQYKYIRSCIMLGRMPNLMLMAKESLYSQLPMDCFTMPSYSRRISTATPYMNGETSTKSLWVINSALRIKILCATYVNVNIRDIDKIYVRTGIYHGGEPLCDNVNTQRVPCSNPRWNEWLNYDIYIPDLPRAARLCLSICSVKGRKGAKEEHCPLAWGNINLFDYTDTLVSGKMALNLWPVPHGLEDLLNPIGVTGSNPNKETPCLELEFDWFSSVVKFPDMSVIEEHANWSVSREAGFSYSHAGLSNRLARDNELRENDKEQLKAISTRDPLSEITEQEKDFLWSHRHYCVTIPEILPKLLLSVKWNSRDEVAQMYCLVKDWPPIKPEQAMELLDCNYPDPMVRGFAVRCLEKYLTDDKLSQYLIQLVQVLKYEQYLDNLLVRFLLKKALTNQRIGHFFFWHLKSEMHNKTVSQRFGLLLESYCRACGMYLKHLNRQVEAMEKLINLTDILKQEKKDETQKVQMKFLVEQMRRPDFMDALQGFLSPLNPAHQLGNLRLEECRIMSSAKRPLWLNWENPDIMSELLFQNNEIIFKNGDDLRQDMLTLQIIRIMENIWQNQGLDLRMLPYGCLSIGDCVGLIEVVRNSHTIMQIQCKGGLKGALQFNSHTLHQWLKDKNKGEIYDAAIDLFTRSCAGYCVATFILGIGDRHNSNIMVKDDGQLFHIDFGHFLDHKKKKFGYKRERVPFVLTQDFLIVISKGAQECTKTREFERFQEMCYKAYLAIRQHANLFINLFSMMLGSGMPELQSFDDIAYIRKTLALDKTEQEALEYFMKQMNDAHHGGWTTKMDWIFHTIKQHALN
Sequence of PI3Kα (P27986 whole entry partner, species assumed): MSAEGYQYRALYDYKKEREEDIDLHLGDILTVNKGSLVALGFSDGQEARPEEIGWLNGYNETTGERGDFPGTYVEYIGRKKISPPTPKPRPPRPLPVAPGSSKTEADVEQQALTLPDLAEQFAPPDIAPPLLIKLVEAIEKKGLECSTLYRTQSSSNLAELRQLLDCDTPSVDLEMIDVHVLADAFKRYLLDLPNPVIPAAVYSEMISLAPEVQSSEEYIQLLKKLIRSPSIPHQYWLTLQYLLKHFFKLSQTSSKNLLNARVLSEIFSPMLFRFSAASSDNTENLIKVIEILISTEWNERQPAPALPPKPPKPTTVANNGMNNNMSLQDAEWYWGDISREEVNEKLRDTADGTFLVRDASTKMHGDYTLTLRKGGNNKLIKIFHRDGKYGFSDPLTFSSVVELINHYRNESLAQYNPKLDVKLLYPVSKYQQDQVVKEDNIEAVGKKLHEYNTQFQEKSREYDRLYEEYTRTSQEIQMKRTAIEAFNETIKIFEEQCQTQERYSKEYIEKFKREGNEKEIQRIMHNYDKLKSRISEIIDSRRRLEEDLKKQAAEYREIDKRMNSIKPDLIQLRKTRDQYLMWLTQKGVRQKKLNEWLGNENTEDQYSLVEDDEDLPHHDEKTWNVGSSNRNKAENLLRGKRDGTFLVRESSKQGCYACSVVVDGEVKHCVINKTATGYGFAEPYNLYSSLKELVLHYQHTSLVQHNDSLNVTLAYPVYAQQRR

Regarding `O=c1cc(Oc2cccc(NCc3ccco3)c2)c2ccccc2[nH]1`, the pIC50 in assay [1] was 5.47; on PI3Kα, 5.33; on human TOR (FLAG-TOR) it was 6.89; in assay [2] it was 4.89.

Turning to `O=c1cc(Oc2cccc(NCc3cccs3)c2)c2ccccc2[nH]1`, the pIC50 in assay [1] is 5.27; on PI3Kα, less than 5.00; at human TOR (FLAG-TOR), 7.10; in assay [2] it was less than 4.22.

For the compound `O=c1cc(Oc2ccc(-c3cn[nH]c3)cc2)c2ccccc2[nH]1`, the pIC50 in assay [1] is 4.22; on PI3Kα, 5.66; at human TOR (FLAG-TOR), less than 4.70; in assay [2], 4.22.

With `Cc1n[nH]c(C)c1-c1ccc(Oc2cc(=O)[nH]c3ccccc23)cc1`, the pIC50 is less than 4.22 in assay [1], 5.16 against PI3Kα, 5.73 at human TOR (FLAG-TOR) and less than 4.22 in assay [2].

For `Cn1cc(-c2ccc3[nH]c(=O)cc(Oc4ccccc4)c3c2)cn1`, the pIC50 in assay [1] was less than 4.22; at PI3Kα, less than 5.00; on human TOR (FLAG-TOR), less than 4.70; in assay [2] it was less than 4.22.

Take `O=c1cc(Oc2ccc(-c3cccc(O)c3)cc2)c2ccccc2[nH]1`: the pIC50 in assay [1] is less than 4.22; against PI3Kα, 5.78; on human TOR (FLAG-TOR), 6.15; in assay [2], less than 4.22.

For `O=c1cc(Oc2ccc(-c3ccncc3)cc2)c2ccccc2[nH]1`, the pIC50 in assay [1] was 5.72; against PI3Kα, 5.31; on human TOR (FLAG-TOR), 6.62; in assay [2] it was less than 4.22.

In the case of `Cc1ccc(Oc2cc(=O)[nH]c3ccccc23)cc1C`, the pIC50 in assay [1] was less than 4.22; on PI3Kα it was less than 5.00; at human TOR (FLAG-TOR), 6.16; in assay [2], less than 4.22.

For `Nc1ccc(-c2cccc(Oc3cc(=O)[nH]c4ccccc34)c2)cc1`, the pIC50 in assay [1] was 4.96; against PI3Kα, 5.02; at human TOR (FLAG-TOR), 6.54; in assay [2], 4.52.

`O=c1cc(Oc2ccccc2)c2cc(-c3cc[nH]n3)ccc2[nH]1`: the pIC50 in assay [1] is less than 4.22; against PI3Kα it was 5.99; on human TOR (FLAG-TOR), 4.94; in assay [2], 4.40.

For the compound `CCOc1ccc(Oc2cc(=O)[nH]c3ccccc23)cc1`, the pIC50 is less than 4.22 in assay [1], less than 5.00 against PI3Kα, less than 4.70 on human TOR (FLAG-TOR) and less than 4.22 in assay [2].

Regarding `O=c1cc(Oc2ccc(OC(F)F)cc2)c2ccccc2[nH]1`, the pIC50 in assay [1] was 5.26; at PI3Kα, less than 5.00; on human TOR (FLAG-TOR), 5.98; in assay [2], less than 4.22.

With `O=c1cc(Oc2cccc(-c3ccncc3)c2)c2ccccc2[nH]1`, the pIC50 in assay [1] is 5.15; against PI3Kα, less than 5.00; on human TOR (FLAG-TOR) it was 6.43; in assay [2], 4.22.

Take `O=c1cc(Oc2ccccc2)c2cc(-c3cccnc3)ccc2[nH]1`: the pIC50 in assay [1] is less than 4.22; at PI3Kα it was 5.13; on human TOR (FLAG-TOR) it was 5.07; in assay [2], less than 4.22.

For the compound `O=c1cc(Oc2cccc(-c3cc[nH]n3)c2)c2ccccc2[nH]1`, the pIC50 is 4.52 in assay [1], 5.18 on PI3Kα, 6.82 at human TOR (FLAG-TOR) and 4.22 in assay [2].

`Nc1cccc(-c2cccc(Oc3cc(=O)[nH]c4ccccc34)c2)c1`: the pIC50 is 5.10 in assay [1], 5.25 against PI3Kα, 6.77 on human TOR (FLAG-TOR) and 4.52 in assay [2].

As for `O=c1cc(Oc2cccc(NCc3cccnc3)c2)c2ccccc2[nH]1`, the pIC50 in assay [1] is 5.49; against PI3Kα it was less than 5.00; at human TOR (FLAG-TOR), 7.10; in assay [2], 5.01.

On to `CCN(CC)CCOc1cccc(Oc2cc(=O)[nH]c3ccccc23)c1`, for which the pIC50 was 5.15 in assay [1], less than 5.00 on PI3Kα, 6.49 at human TOR (FLAG-TOR) and 4.55 in assay [2].

As to `COc1ncc(-c2cccc(Oc3cc(=O)[nH]c4ccccc34)c2)c(OC)n1`, the negative-log IC50 (pIC50) was less than 4.22 in assay [1], less than 5.00 against PI3Kα, 6.55 on human TOR (FLAG-TOR) and 4.42 in assay [2].

With `CN1CCN(c2cc(-c3cccc(Oc4cc(=O)[nH]c5ccccc45)c3)ccn2)CC1`, the pIC50 in assay [1] is 5.60; against PI3Kα it was less than 5.00; on human TOR (FLAG-TOR), 6.40; in assay [2], 5.39.

Turning to `CN(C)CCCOc1ccc(-c2ccc(Oc3cc(=O)[nH]c4ccccc34)cc2)cn1`, the pIC50 was 5.68 in assay [1], less than 5.00 at PI3Kα, 6.09 at human TOR (FLAG-TOR) and 5.41 in assay [2].

Regarding `CN(C)CCCNC(=O)c1cccc(-c2cccc(Oc3cc(=O)[nH]c4ccccc34)c2)c1`, the pIC50 in assay [1] was 5.37; on PI3Kα, less than 5.00; at human TOR (FLAG-TOR), 6.30; in assay [2], 5.00.

In the case of `Nc1cccc(Oc2cc(=O)[nH]c3cc(Cl)ccc23)c1`, the pIC50 in assay [1] is 5.35; against PI3Kα it was 5.17; on human TOR (FLAG-TOR) it was 6.22; in assay [2], less than 4.22.

`CN(C)CCc1ccc(Oc2cc(=O)[nH]c3ccccc23)cc1`: the pIC50 in assay [1] is 5.10; against PI3Kα, less than 5.00; on human TOR (FLAG-TOR), 5.49; in assay [2], 4.64.

For `O=c1cc(Oc2ccc(I)cc2)c2ccccc2[nH]1`, the pIC50 in assay [1] was less than 4.22; against PI3Kα, less than 5.00; on human TOR (FLAG-TOR) it was 6.13; in assay [2], 4.74.

In the case of `CC(=O)Nc1ccc(-c2cccc(Oc3cc(=O)[nH]c4ccccc34)c2)cc1`, the negative logarithm of the IC50 (pIC50) in assay [1] was 4.82; on PI3Kα, 5.44; on human TOR (FLAG-TOR), 6.66; in assay [2], 4.96.

As to `O=C(NCCO)Nc1ccc(-c2cccc(Oc3cc(=O)[nH]c4ccccc34)c2)cc1`, the pIC50 was 4.22 in assay [1], 5.07 against PI3Kα, 6.60 on human TOR (FLAG-TOR) and less than 4.22 in assay [2].

Turning to `O=C(NCCN1CCOCC1)Nc1ccc(-c2cccc(Oc3cc(=O)[nH]c4ccccc34)c2)cc1`, the pIC50 in assay [1] is 5.15; at PI3Kα it was less than 5.00; on human TOR (FLAG-TOR), 6.66; in assay [2], 4.60.

For the compound `CN(C)CCNC(=O)Nc1ccc(-c2cccc(Oc3cc(=O)[nH]c4ccccc34)c2)cc1`, the pIC50 in assay [1] is 5.15; at PI3Kα, less than 5.00; at human TOR (FLAG-TOR), 7.00; in assay [2] it was 5.05.

Consider `COCCNC(=O)Nc1ccc(-c2cccc(Oc3cc(=O)[nH]c4ccccc34)c2)cc1`, for which the negative-log IC50 (pIC50) was less than 4.22 in assay [1], less than 5.00 at PI3Kα, 6.59 on human TOR (FLAG-TOR) and 4.22 in assay [2].

For `CC(C)OC(=O)Nc1ccc(-c2cccc(Oc3cc(=O)[nH]c4ccccc34)c2)cc1`, the pIC50 in assay [1] is 5.40; at PI3Kα, less than 5.00; at human TOR (FLAG-TOR), 5.87; in assay [2], 5.30.

As to `CN(C)CCNC(=O)c1ccc(-c2cccc(Oc3cc(=O)[nH]c4ccccc34)c2)cc1`, the pIC50 in assay [1] was 5.22; at PI3Kα it was less than 5.00; at human TOR (FLAG-TOR) it was 6.62; in assay [2], 4.92.

Turning to `O=C(NCCO)c1ccc(-c2cccc(Oc3cc(=O)[nH]c4ccccc34)c2)cc1`, the pIC50 in assay [1] is less than 4.22; against PI3Kα, less than 5.00; at human TOR (FLAG-TOR), 6.64; in assay [2] it was less than 4.22.

As for `CN(C)CCNC(=O)c1cccc(-c2cccc(Oc3cc(=O)[nH]c4ccccc34)c2)c1`, the pIC50 in assay [1] was 5.00; at PI3Kα, less than 5.00; at human TOR (FLAG-TOR), 6.49; in assay [2], 5.00.

With `CC(C)(C)OCNC(=O)c1cccc(-c2cccc(Oc3cc(=O)[nH]c4ccccc34)c2)c1`, the pIC50 was 5.18 in assay [1], less than 5.00 against PI3Kα, 5.62 on human TOR (FLAG-TOR) and less than 4.22 in assay [2].

With `O=c1cc(Oc2cccc(OCCO)c2)c2ccccc2[nH]1`, the pIC50 in assay [1] was 5.22; on PI3Kα, 4.92; at human TOR (FLAG-TOR), 6.47; in assay [2] it was less than 4.22.

In the case of `O=c1cc(Oc2cccc(-c3ccc(N4CCOCC4)cc3)c2)c2ccccc2[nH]1`, the pIC50 in assay [1] is 4.89; at PI3Kα, 4.98; at human TOR (FLAG-TOR), 6.31; in assay [2] it was 4.46.

The values are drawn from US20100068204A1, “4-ARYLOXYQUINOLIN-2(1H)-ONES AS MTOR KINASE AND PI3 KINASE INHIBITORS, FOR USE AS ANTI-CANCER AGENTS” (Wyeth, priority 2008, published 2010).
